Test results reported in article PMC8282878, “Enhanced mosquitocidal efficacy of pyrethroid insecticides by nanometric emulsion preparation towards Culex pipiens larvae with biochemical and molecular docking studies” (Journal of the Egyptian Public Health Association, 2021).
Values after ≈ are worked out from the molar mass of the structure shown. Values joined by “and” are separate entries in the source; they are usually repeats but may differ in a detail not shown here. Equal values may be shown once. Read-outs that look alike come from different tables or passages of the source.

Tests used:
[1] = system: glutathione-S-transferase (GST); details: larvae 24 h after treatment with LC50, untreated 2.70
Method: The homogenate was centrifuged at 5000 rpm for 20 min at 4°C. The supernatant was used immediately for enzymatic assay or stored at – 20 °C. Total protein was determined according to Lowry et al.’s [23] method, and the concentrations were calculated by comparing with the standard curve of BSA.
GST assay was performed using reduced glutathione (2.5 mM) by Saint-Deniset et al. [26]. The assay mixture contained 100 μL of 1.5 mM CDNB, 200 μL of reduced glutathione, and 1.5 ml of pH 7.4 phosphate buffer. A total of 200 μL of the enzyme was added to the above mixture, shaken gently, and incubated for 15 min at 37 °C. The absorbance was recorded at 340 nm using a UV/Visible spectrophotometer (Alpha-1502. Laxco Inc, USA). One unit of enzyme activity attributed to the quantity of conjugated enzyme with 1 mmol of GSH per min. The enzyme activity was expressed as OD340 min^−1 mg protein^−1.

Culex pipiens larvae = experiment: Toxicity assay against C. pipiens larvae (WHO larval bioassay); type: in vivo; details: for LC50: Culex pipiens
Text: A susceptible strain of C. pipiens culture was obtained from Research Institute of Medical Entomology, Ministry of Health, Dokki, Giza, Egypt, and reared in High Institute of Public Health insectary, Alexandria University, Alexandria, Egypt. The Larvae were fed on biscuits [containing wheat flour and yeast powder mixed with milk powder (10: 1: 1, w/w, respectively)] until pupation in shallow trays containing 2–3 L of de-chlorinated water. Male adults were fed on 30% sucrose solution, and females were fed on pigeon blood four times a week in adult cages. […] The egg rafts were transferred from adult cages to white trays containing de-chlorinated water for egg hatch.
According to the World Health Organization, the larval bioassay was performed to compare the effect of nanoemulsions of selected pyrethroids with their active ingredient and commercial EC formulations on the C. pipiens larva recommendations. Third instar larvae were used in the evaluation by a direct contact method. The three forms of tested insecticides (technical, commercial EC formulation, and nanoemulsion) were tested to obtain the LC50 values. Technical pyrethroids were dissolved in DMSO and mixed with Tween-80 (0.05%), while the EC and nanoemulsions were dissolved in distilled water. Different concentrations ranging from 0.5 to 500 μg/L were tested in three replicates. Twenty C. pipiens larvae were put into plastic cups containing 100 mL of de-chlorinated water. The larvae were treated separately with Tween 80 or DMSO, and larvae without any treatment were maintained as control. The larvae’s morbidity and mortality were verified and recorded based on the larvae’s uncoordinated movement after investigating the cervical region with a needle.

[2] = system: adenosine triphosphatase (ATPase); experiment: ATPase assay in homogenate of surviving treated larvae; type: biochemical, Culex pipiens; details: larvae 24 h after treatment with LC50, untreated 1.40
Method: ATPase activity was performed according to Koch’s method. The reaction mixture, which contained 400 mM Na^+, 20 mM K^+, 5 mM Mg ^+, and 5 mM ATP, was prepared, and 200 μL of the crude enzyme was added to this mixture. Then, the volume was completed to 950 μL with Tris-HCl buffer (pH 7.4). After 10 min incubation at 37 °C, the reaction was stopped with 200 μL of TCA. A fresh color reagent (5 g ferrous sulfate in 10 mL ammonium molybdate solution prepared in 10 N sulfuric acid) was added to the reaction mixture. The absorbance of the developed blue color was measured at 740 nm, and the enzyme activity was calculated as OD740 min^−1 mg protein^−1.

[3] = system: freshwater green alga Raphidocelis subcapitata; experiment: whole plant or invertebrate; details: for EC50: Raphidocelis subcapitata, 96 h, read-out: 96 h EC50 (95% confidence limits); for NOEC: no observed effect concentration on algal growth rate, NOEC = EC/10
Method: The freshwater green alga Raphidocelis subcapitata was obtained from the Faculty of Science; Mansoura University, Egypt. The stock culture was maintained in 250-mL borosilicate Erlenmeyer flasks containing culture medium at 24 ± 2 °C, under a continuous white fluorescent light of 3000–4000 lux, and manually shaken twice a day. The axenic culture was maintained for the provision of a continuous supply of “healthy” cells for the tests in a standard algal assay medium (AAM) as described in Miller et al..
An acute algal growth inhibition test was conducted using different concentrations of each insecticide in sterile AAM in a final volume of 50 mL. Tested concentrations of a pesticide were prepared from stock solutions on an arithmetic progression covering an expected range of toxicity from 0 to 90%. Stock solutions of technical insecticides were prepared in 1% DMSO and a corresponding control was included. Stock solutions of the EC and NE were prepared. Algal suspensions were exposed to different concentrations (0.0005–500 mg/L) prepared in the same medium of algae culture. All assays were conducted in triplicate. An inoculum of the exponentially-growing culture of R. subcapitata (harvested from 4–7 days stock culture) was prepared no more than 2–3 h before the beginning of the test. Initial cell density for the growth inhibition test was 10,000 cells/ml in both test and control flasks. Zero-time begins at inoculation of all flasks with the algal cells followed by incubation for 96 h in a temperature-controlled (25 °C) orbital shaker set at 100 rpm under continuous illumination via white fluorescent lamps. After 96 h, algal growth in terms of viable cell concentration was examined in a Neubauer hemocytometer using a phase-contrast microscope. Growth rate inhibition of the alga was used as the endpoint in this assessment. The percent inhibition values were calculated after 96 h, and the median effective concentration (EC50) values were calculated from the probit analysis with 95% confidence limits. The no observed effect concentration (NOEC) after algal exposure to each tested insecticide was calculated by the formula: NOEC = EC/10 [31]. Furthermore, the hazard statement of each tested insecticide was estimated according to UNECE GHS (2019).
Statistical analysis was performed using the IBM SPSS software version 25.0 (SPSS, Chicago, IL, USA). Mortality percentages were calculated for each treatment and corrected using Abbott’s equation [34]. Means and standard error (SE) were obtained from three independent replications performed for each treatment. The log dose-response (LdP) lines were used in the determination of the LC50 values for the mosquito’s bioassay and EC50 values for the algal bioassay according to the probit analysis. The least-square regression analysis was used to determine the 95% confidence limits. Analysis of variance (ANOVA) of the biochemical data was conducted and means property values were separated (p ≤ 0.05) with Student-Newman-Keuls (SNK).

carboxylesterase (CaE) = experiment: CaE assay in homogenate of surviving treated larvae; type: biochemical, Culex pipiens; details: larvae 24 h after treatment with LC50, untreated 3.31
Method: CaE activity was determined according to Van Asperen’s method, which used α-naphthyl acetate as a substrate. The assay mixture contained 50 μL of homogenate enzyme, 2.1 mL of 50 mM sodium phosphate buffer (pH 7.4), and 25 μL of 5 mM α-naphthyl acetate solution. The mixture incubation was done at 37 °C for 15 min. […] The absorption was measured at 555 nm. The enzyme activity was expressed as OD555 min^−1 mg protein^−1.

[4] = system: C. tritaeniorhynchus larvae; design: method as in PMID 28245893; details: cited from earlier work
[5] = cited from earlier work

| SMILES | Slope ± SE of the concentration mortality regression line (Culex pipiens larvae; 24 h exposure) | Slope ± SE of the concentration mortality regression line (Culex pipiens larvae; 48 h exposure) | LC50 (Culex pipiens larvae; 24 h) | LC50 (Culex pipiens larvae; 48 h) | EC50 [3] | NOEC [3] | Specific activity ± SE, CaE (carboxylesterase (CaE)) | also measured |
| --- | --- | --- | --- | --- | --- | --- | --- | --- |
| CC1(C)[C@H](C(=O)O[C@H](C#N)c2cccc(Oc3ccccc3)c2)[C@@H]1/C=C(\Cl)C(F)(F)F (racemic) [Lambda-cyhalothrin, lambda-cyhalothrin] | 1.47 ± 0.09 | 1.30 ± 0.09 | 0.027 µg/mL (≈ 0.06 µM) | 0.018 µg/mL (≈ 0.04 µM) | 33.9 µg/mL (≈ 75.3 µM) | 3.389 mg/L | 1.51 ± 0.09 OD mg protein^−1 min | Specific activity ± SE, GST ([1]; listed as Lambda-cyhalothrin T): 4.57 OD mg protein^−1 min and 4.57 ± 0.48 OD mg protein^−1 min; Specific activity ± SE, ATPase ([2]; listed as Lambda-cyhalothrin T): 0.62 OD mg protein^−1 min and 0.62 ± 0.05 OD mg protein^−1 min |
| CC1(C)C(C=C(Cl)Cl)C1C(=O)OC(C#N)c1cccc(Oc2ccccc2)c1 (stereo not drawn) [Alpha-cypermethrin, alpha-cypermethrin] | 2.47 ± 0.15 | – | 0.043 µg/mL (≈ 0.103 µM) | 0.04 µg/mL (≈ 0.0961 µM) | 69.3 µg/mL (≈ 167 µM) | 6.932 mg/L | 5.06 ± 0.15 OD mg protein^−1 min | Specific activity ± SE, GST ([1]; listed as Alpha-cypermethrin T): 5.31 OD mg protein^−1 min and 5.31 ± 0.70 OD mg protein^−1 min; Specific activity ± SE, ATPase ([2]; listed as Alpha-cypermethrin T): 0.86 OD mg protein^−1 min and 0.86 ± 0.02 OD mg protein^−1 min |
| CC1(C)[C@H](C(=O)O[C@H](C#N)c2cccc(Oc3ccccc3)c2)[C@@H]1C=C(Br)Br [Deltamethrin, deltamethrin] | 2.23 ± 0.13 | 2.12 ± 0.13 | – | – | > 100 µg/mL | > 10 mg/L | – | Specific activity ± SE, GST [1]: 5.49 ± 0.60 OD mg protein^−1 min; LC50 (Culex pipiens larvae; third instar larvae, 24 h exposure, read-out: LC50): 0.028 µg/mL (≈ 0.0554 µM); LC50 (Culex pipiens larvae; third instar larvae, 48 h exposure, read-out: LC50): 0.025 µg/mL (≈ 0.0495 µM); Specific activity ± SE, ATPase ([2]; listed as Deltamethrin T): 0.69 OD mg protein^−1 min and 0.69 ± 0.02 OD mg protein^−1 min; Specific activity ± SE, CaE (carboxylesterase (CaE); listed as Deltamethrin T): 4.53 OD mg protein^−1 min and 3.44 ± 0.19 OD mg protein^−1 min |
| CC1(C)C(C=C(Cl)Cl)C1C(=O)OCc1cccc(Oc2ccccc2)c1 (centres unmarked) [Permethrin, permethrin] | 1.36 ± 0.089 | 1.26 ± 0.08 | 0.322 µg/mL (≈ 0.823 µM) | 0.225 µg/mL (≈ 0.575 µM) | 14.9 µg/mL (≈ 38.2 µM) | 1.494 mg/L | 2.31 ± 0.09 OD mg protein^−1 min | Specific activity ± SE, GST ([1]; listed as Permethrin T): 6.32 OD mg protein^−1 min and 6.32 ± 0.59 OD mg protein^−1 min; LC50 (Culex pipiens larvae; read-out: LC50 range): 0.127 to 0.322 µg/mL (≈ 0.325 to 0.823 µM); Specific activity ± SE, ATPase ([2]; listed as Permethrin T): 0.64 OD mg protein^−1 min and 0.64 ± 0.00 OD mg protein^−1 min |
| CC1(C)C(C=C(Cl)Cl)C1C(=O)OCc1cccc(Oc2ccccc2)c1 (centres unmarked) [bulk permethrin, permethrin] | – | – | – | – | – | – | – | LC50 [4]: 442 µg/L (≈ 1.13 µM) |
| C[n+]1ccc(-c2cc[n+](C)cc2)cc1 [paraquat] | – | – | – | – | – | – | – | 96 h EC50 [5]: 0.48 mg/L |
